From the supplement of paper PMC9663587

Assays:
[1] = compound: T1, CCOc1cc2ncc(C#N)c(Nc3ccc(OCc4ccccn4)c(Cl)c3)c2cc1NC(=O)/C=C/CN(C)C [Neratinib/HKI272]; assay: increase in dead-cell fraction, 72 h; higher = more death;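 also: breast cancer cell lines in 384-well plates, stained with Hoechst plus LIVE/DEAD far red dye and imaged, cells above an LDR intensity threshold counted dead, Hoechst-negative corpses included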
[2] = compound: CCc1cnn2c(NCc3ccc[n+]([O-])c3)cc(N3CCCC[C@H]3CCO)nc12; assay: as above
[3] = compound: CN(C)C(=O)c1cc2cnc(Nc3ccc(N4CCNCC4)cn3)nc2n1C1CCCC1 [LEE011/Ribociclib]; assay: as above
[4] = compound: CCN1CCN(Cc2ccc(Nc3ncc(F)c(-c4cc(F)c5nc(C)n(C(C)C)c5c4)n3)nc2)CC1; assay: as above
[5] = compound: CC(=O)c1c(C)c2cnc(Nc3ccc(N4CCNCC4)cn3)nc2n(C2CCCC2)c1=O; assay: as above
[6] = compound: CN1CC[C@H](c2c(O)cc(O)c3c(=O)cc(-c4ccccc4Cl)oc23)[C@H](O)C1 [Flavopiridol]; assay: as above
[7] = compound: CN(C)C/C=C/C(=O)Nc1ccc(C(=O)N2CCC[C@@H](Nc3ncc(Cl)c(-c4c[nH]c5ccccc45)n3)C2)cc1 [THZ531]; assay: as above
[8] = compound: T2, CN(C)C/C=C/C(=O)Nc1ccc(C(=O)Nc2cccc(Nc3ncc(Cl)c(-c4c[nH]c5ccccc45)n3)c2)cc1 [THZ1]; assay: as above
[9] = compound: C=CC(=O)Nc1ccc(C(=O)Nc2[nH]nc3c2CN(C(=O)N[C@H](CN(C)C)c2ccccc2)C3(C)C)cc1 [YKL-5-124]; assay: as above
[10] = compound: CC(=O)c1c(C)c2cnc(Nc3ccc(N4CCN(CCOCCOCCOCCNC(=O)COc5cccc6c5C(=O)N(C5CCC(=O)NC5=O)C6=O)CC4)cn3)nc2n(C2CCCC2)c1=O [BSJ-03-123]; assay: as above
[11] = compound: T1, Neratinib/HKI272; assay: GR value, 72 h; higher = faster growth (1 = untreated, <0 = killing);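 also: breast cancer and non-malignant breast epithelial lines, nine half-log doses, viable cells counted by Hoechst and LIVE/DEAD dye imaging versus time-zero plates and DMSO controls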
[12] = compound: T2, THZ1; assay: as above

Cell Line: EFM19
- increase in dead-cell fraction ([1]; 0.0003162 µM): -0.0049
- increase in dead-cell fraction ([1]; 0.001 µM): -0.0044
- increase in dead-cell fraction ([1]; 0.003162 µM): -0.0012
- increase in dead-cell fraction ([1]; 0.01 µM): -0.0052
- increase in dead-cell fraction ([1]; 0.03162 µM): -0.0028
- increase in dead-cell fraction ([1]; 0.1 µM): -0.0038
- increase in dead-cell fraction ([1]; 0.3162 µM): -0.0011
- increase in dead-cell fraction ([1]; 1 µM): -0.0033
- increase in dead-cell fraction ([1]; 3.162 µM): 0.0028
- increase in dead-cell fraction ([2]; 0.0001 µM): -0.0077
- increase in dead-cell fraction ([2]; 0.0003162 µM): -0.0011
- increase in dead-cell fraction ([2]; 0.001 µM): -0.006
- increase in dead-cell fraction ([2]; 0.003162 µM): -0.0052
- increase in dead-cell fraction ([2]; 0.01 µM): -0.0076
- increase in dead-cell fraction ([2]; 0.03162 µM): 0.0197
- increase in dead-cell fraction ([2]; 0.1 µM): 0.148
- increase in dead-cell fraction ([2]; 0.3162 µM): 0.323
- increase in dead-cell fraction ([2]; 1 µM): 0.478
- increase in dead-cell fraction ([3]; 0.001 µM): -0.0027
- increase in dead-cell fraction ([3]; 0.003162 µM): -0.0038
- increase in dead-cell fraction ([3]; 0.01 µM): -0.0001
- increase in dead-cell fraction ([3]; 0.03162 µM): -0.0005
- increase in dead-cell fraction ([3]; 0.1 µM): 0.0163
- increase in dead-cell fraction ([3]; 0.3162 µM): 0.0047
- increase in dead-cell fraction ([3]; 1 µM): 0.0042
- increase in dead-cell fraction ([3]; 3.162 µM): 0.0248
- increase in dead-cell fraction ([3]; 10 µM): 0.0149
- increase in dead-cell fraction ([4]; 0.001 µM): -0.0101
- increase in dead-cell fraction ([4]; 0.003162 µM): -0.0007
- increase in dead-cell fraction ([4]; 0.01 µM): 0.0035
- increase in dead-cell fraction ([4]; 0.03162 µM): 0.0136
- increase in dead-cell fraction ([4]; 0.1 µM): 0.0179
- increase in dead-cell fraction ([4]; 0.3162 µM): 0.0249
- increase in dead-cell fraction ([4]; 1 µM): 0.0149
- increase in dead-cell fraction ([4]; 3.162 µM): 0.0183
- increase in dead-cell fraction ([4]; 10 µM): 0.0445
- increase in dead-cell fraction ([5]; 0.0003162 µM): -0.0086
- increase in dead-cell fraction ([5]; 0.001 µM): -0.0086
- increase in dead-cell fraction ([5]; 0.003162 µM): -0.0036
- increase in dead-cell fraction ([5]; 0.01 µM): -0.0059
- increase in dead-cell fraction ([5]; 0.03162 µM): -0.0024
- increase in dead-cell fraction ([5]; 0.1 µM): -0.0087
- increase in dead-cell fraction ([5]; 0.3162 µM): 0.0108
- increase in dead-cell fraction ([5]; 1 µM): 0.0355
- increase in dead-cell fraction ([5]; 3.162 µM): 0.0448
- increase in dead-cell fraction ([6]; 0.0001 µM): -0.0095
- increase in dead-cell fraction ([6]; 0.0003162 µM): -0.003
- increase in dead-cell fraction ([6]; 0.001 µM): -0.0007
- increase in dead-cell fraction ([6]; 0.003162 µM): 0.0016
- increase in dead-cell fraction ([6]; 0.01 µM): 0.0002
- increase in dead-cell fraction ([6]; 0.03162 µM): -0.0106
- increase in dead-cell fraction ([6]; 0.1 µM): -0.0044
- increase in dead-cell fraction ([6]; 0.3162 µM): 0.0118
- increase in dead-cell fraction ([6]; 1 µM): 0.223
- increase in dead-cell fraction ([7]; 0.0001 µM): -0.0038
- increase in dead-cell fraction ([7]; 0.0003162 µM): -0.0067
- increase in dead-cell fraction ([7]; 0.001 µM): -0.005
- increase in dead-cell fraction ([7]; 0.003162 µM): -0.0057
- increase in dead-cell fraction ([7]; 0.01 µM): -0.0007
- increase in dead-cell fraction ([7]; 0.03162 µM): 0.0062
- increase in dead-cell fraction ([7]; 0.1 µM): 0.0006
- increase in dead-cell fraction ([7]; 0.3162 µM): -0.0035
- increase in dead-cell fraction ([7]; 1 µM): 0.527
- increase in dead-cell fraction ([8]; 0.0001 µM): -0.004
- increase in dead-cell fraction ([8]; 0.0003162 µM): -0.0048
- increase in dead-cell fraction ([8]; 0.001 µM): -0.0107
- increase in dead-cell fraction ([8]; 0.003162 µM): -0.0093
- increase in dead-cell fraction ([8]; 0.01 µM): -0.0068
- increase in dead-cell fraction ([8]; 0.03162 µM): -0.0102
- increase in dead-cell fraction ([8]; 0.1 µM): -0.002
- increase in dead-cell fraction ([8]; 0.3162 µM): 0.0031
- increase in dead-cell fraction ([8]; 1 µM): 0.215
- increase in dead-cell fraction ([9]; 0.001 µM): 0.0076
- increase in dead-cell fraction ([9]; 0.003162 µM): 0.0133
- increase in dead-cell fraction ([9]; 0.01 µM): 0.0465
- increase in dead-cell fraction ([9]; 0.03162 µM): 0.0193
- increase in dead-cell fraction ([9]; 0.1 µM): 0.0243
- increase in dead-cell fraction ([9]; 0.3162 µM): 0.0368
- increase in dead-cell fraction ([9]; 1 µM): 0.0396
- increase in dead-cell fraction ([9]; 3.162 µM): 0.0167
- increase in dead-cell fraction ([9]; 10 µM): 0.0439
- increase in dead-cell fraction ([10]; 0.001 µM): -0.0051
- increase in dead-cell fraction ([10]; 0.003162 µM): -0.0117
- increase in dead-cell fraction ([10]; 0.01 µM): 0.001
- increase in dead-cell fraction ([10]; 0.03162 µM): 0.0013
- increase in dead-cell fraction ([10]; 0.1 µM): -0.0048
- increase in dead-cell fraction ([10]; 0.3162 µM): -0.0048
- increase in dead-cell fraction ([10]; 1 µM): 0.009
- increase in dead-cell fraction ([10]; 3.162 µM): 0.0049
- increase in dead-cell fraction ([10]; 10 µM): 0.0309
- GR value ([11]; 0.0003162 µM): 1.07 GR
- GR value ([11]; 0.001 µM): 1.12 GR
- GR value ([11]; 0.003162 µM): 1.12 GR
- GR value ([11]; 0.01 µM): 1.05 GR
- GR value ([11]; 0.03162 µM): 1.06 GR
- GR value ([11]; 0.1 µM): 1.03 GR
- GR value ([11]; 0.3162 µM): 0.933 GR
- GR value ([11]; 1 µM): 0.811 GR
- GR value ([11]; 3.162 µM): 0.688 GR
- GR value ([12]; 0.0001 µM): 0.946 GR
- GR value ([12]; 0.0003162 µM): 1.1 GR
- GR value ([12]; 0.001 µM): 1.04 GR
- GR value ([12]; 0.003162 µM): 0.932 GR
- GR value ([12]; 0.01 µM): 1.01 GR
- GR value ([12]; 0.03162 µM): 0.922 GR
- GR value ([12]; 0.1 µM): 0.86 GR
- GR value ([12]; 0.3162 µM): 0.69 GR
- GR value ([12]; 1 µM): -0.299 GR
